Holding throughout (assay): relative viability (nuclei count vs DMSO), 5 days (fraction); higher = more cells survive
Compound in test [1]: O=S(=O)(c1ccccc1)N(CC(F)(F)F)c1ccc(C(O)(C(F)(F)F)C(F)(F)F)cc1 + COc1cc2c(Oc3ccc(NC(=O)C4(C(=O)Nc5ccc(F)cc5)CC4)cc3F)ccnc2cc1OCCCN1CCOCC1 [Foretinib] (partner 0.25 µM)
A digest of the protocol:
(§1)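 Cells from lung cancer lines were seeded into 1536-well plates and, one day later, dosed by pin tool. Treatments were either a single drug or a fixed dose of an anchor drug with five library-drug doses (not always all listed) in √10 steps. After 5 days, nuclei were stained in a one-step fixation (final 0.05% Triton X-100, 1% formaldehyde, 1 ug/ml Hoechst) and counted on 4× images, and relative viability is the treated-to-vehicle nuclei ratio, as the median of duplicate plates.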

Compound in test [2]: O=S(=O)(c1ccccc1)N(CC(F)(F)F)c1ccc(C(O)(C(F)(F)F)C(F)(F)F)cc1 + CC(C)C[C@H](NC(=O)[C@H](Cc1ccccc1)NC(=O)c1cnccn1)B(O)O [Bortezomib] (partner 0.002 µM)
In outline:
as §1

Compound in test [3]: O=S(=O)(c1ccccc1)N(CC(F)(F)F)c1ccc(C(O)(C(F)(F)F)C(F)(F)F)cc1 + Cc1nc(Nc2ncc(C(=O)Nc3c(C)cccc3Cl)s2)cc(N2CCN(CCO)CC2)n1 [Dasatinib] (partner 0.075 µM)
In outline: as §1

Compound in the test “RO-3306 + Bortezomib”: C1=CC2=C(C=CC(=C2)C=C3C(=O)NC(=NCC4=CC=CS4)S3)N=C1 [RO-3306] + CC(C)C[C@H](NC(=O)[C@H](Cc1ccccc1)NC(=O)c1cnccn1)B(O)O [Bortezomib] (partner 0.002 µM)
In outline: as §1

Compound in test [4]: O=S(=O)(c1ccccc1)N(CC(F)(F)F)c1ccc(C(O)(C(F)(F)F)C(F)(F)F)cc1 + CCNC(=O)c1noc(-c2cc(C(C)C)c(O)cc2O)c1-c1ccc(CN2CCOCC2)cc1 [Luminespib] (partner 0.01 µM)
A digest of the protocol: as §1

In the case of 201T, the relative viability was 1.1 in test [1] (first compound 0.8 µM); 0.968 in test [1] (first compound 2.53 µM); 0.92 in test [1] (first compound 8 µM); 1.02 in test [2] (first compound 0.8 µM); 1.04 in test [2] (first compound 2.53 µM); 1 in test [2] (first compound 8 µM). Moreover, the relative viability in test [3] (first compound 0.8 µM) came to 0.463; in test [3] (first compound 2.53 µM), 0.435; in test [3] (first compound 8 µM), 0.497; in the test with RO-3306 + Bortezomib (first compound 0.01 µM), 1.11; with RO-3306 + Bortezomib (first compound 0.03162 µM), 1.11; in the test with RO-3306 + Bortezomib (first compound 0.1 µM) it was 1.07. The relative viability with RO-3306 + Bortezomib (first compound 0.3162 µM) was 1.11; with RO-3306 + Bortezomib (first compound 1 µM) it was 0.934; in test [4] (first compound 0.8 µM), 1.05; in test [4] (first compound 2.53 µM), 0.887; in test [4] (first compound 8 µM) it was 0.975.
On to A549, for which the relative viability in test [1] (first compound 0.8 µM) worked out at 0.962; in test [1] (first compound 2.53 µM) it was 0.944; in test [1] (first compound 8 µM), 0.752.
On to A-427, for which the relative viability was found to be 1.1 in test [1] (first compound 0.8 µM); 0.967 in test [1] (first compound 2.53 µM); 1.09 in test [1] (first compound 8 µM); 0.973 in test [2] (first compound 0.8 µM); 0.916 in test [2] (first compound 2.53 µM); 1.07 in test [2] (first compound 8 µM). The relative viability in test [3] (first compound 0.8 µM) came out at 0.737; in test [3] (first compound 2.53 µM), 0.653; in test [3] (first compound 8 µM) it was 0.846; with RO-3306 + Bortezomib (first compound 0.01 µM) it was 0.935; with RO-3306 + Bortezomib (first compound 0.03162 µM) it was 1.04; with RO-3306 + Bortezomib (first compound 0.1 µM), 0.942. For the same cell line, the relative viability was 0.906 with RO-3306 + Bortezomib (first compound 0.3162 µM); 0.478 with RO-3306 + Bortezomib (first compound 1 µM); 0.919 in test [4] (first compound 0.8 µM); 0.774 in test [4] (first compound 2.53 µM); 1.05 in test [4] (first compound 8 µM).
ABC-1: the relative viability in test [1] (first compound 0.8 µM) came to 1.31; in test [1] (first compound 2.53 µM), 1.19; in test [1] (first compound 8 µM) it was 1.08; in test [2] (first compound 0.8 µM), 0.27; in test [2] (first compound 2.53 µM) it was 0.297; in test [2] (first compound 8 µM), 0.293. Further, the relative viability in test [3] (first compound 0.8 µM) amounted to 0.649; in test [3] (first compound 2.53 µM) it was 0.531; in test [3] (first compound 8 µM), 0.654; in the test with RO-3306 + Bortezomib (first compound 0.01 µM) it was 0.262; in the test with RO-3306 + Bortezomib (first compound 0.03162 µM), 0.396; with RO-3306 + Bortezomib (first compound 0.1 µM), 0.28. Moreover, the relative viability is 0.287 with RO-3306 + Bortezomib (first compound 0.3162 µM); 0.274 with RO-3306 + Bortezomib (first compound 1 µM); 0.746 in test [4] (first compound 0.8 µM); 0.571 in test [4] (first compound 2.53 µM); 0.519 in test [4] (first compound 8 µM).
Regarding BEN, the relative viability is 0.568 in test [1] (first compound 0.8 µM); 0.527 in test [1] (first compound 2.53 µM); 0.578 in test [1] (first compound 8 µM); 0.843 in test [2] (first compound 0.8 µM); 0.844 in test [2] (first compound 2.53 µM); 0.866 in test [2] (first compound 8 µM). Moreover, the relative viability in test [3] (first compound 0.8 µM) was determined as 0.252; in test [3] (first compound 2.53 µM) it was 0.275; in test [3] (first compound 8 µM) it was 0.333; with RO-3306 + Bortezomib (first compound 0.01 µM) it was 0.795; with RO-3306 + Bortezomib (first compound 0.03162 µM) it was 0.724; with RO-3306 + Bortezomib (first compound 0.1 µM), 0.867. The relative viability was found to be 0.849 in the test with RO-3306 + Bortezomib (first compound 0.3162 µM); 0.747 in the test with RO-3306 + Bortezomib (first compound 1 µM); 0.343 in test [4] (first compound 0.8 µM); 0.289 in test [4] (first compound 2.53 µM); 0.182 in test [4] (first compound 8 µM).
Regarding CAL-12T, the relative viability in test [1] (first compound 0.8 µM) was 1.06; in test [1] (first compound 2.53 µM) it was 0.962; in test [1] (first compound 8 µM), 0.936; in test [2] (first compound 2.53 µM), 0.964; in test [2] (first compound 8 µM), 0.958; in test [3] (first compound 0.8 µM), 0.331. The relative viability in test [3] (first compound 2.53 µM) was 0.216; in test [3] (first compound 8 µM), 0.392; in the test with RO-3306 + Bortezomib (first compound 0.01 µM), 0.956; with RO-3306 + Bortezomib (first compound 0.3162 µM), 0.992; with RO-3306 + Bortezomib (first compound 1 µM), 1.09; in test [4] (first compound 0.8 µM), 0.38. Further, the relative viability is 0.251 in test [4] (first compound 2.53 µM) and 0.354 in test [4] (first compound 8 µM).
With COR-L23, the relative viability in test [1] (first compound 0.8 µM) is 0.971; in test [1] (first compound 2.53 µM) it was 1.01; in test [1] (first compound 8 µM), 0.888; in test [2] (first compound 0.8 µM), 1.18; in test [2] (first compound 2.53 µM) it was 0.945; in test [2] (first compound 8 µM), 0.914. The relative viability in test [3] (first compound 0.8 µM) came out at 0.591; in test [3] (first compound 2.53 µM) it was 0.461; in test [3] (first compound 8 µM), 0.5; with RO-3306 + Bortezomib (first compound 0.01 µM), 1.03; with RO-3306 + Bortezomib (first compound 0.1 µM), 1.1; with RO-3306 + Bortezomib (first compound 0.3162 µM), 1.02. Moreover, the relative viability is 0.772 in the test with RO-3306 + Bortezomib (first compound 1 µM), 0.953 in test [4] (first compound 0.8 µM), 0.728 in test [4] (first compound 2.53 µM) and 0.628 in test [4] (first compound 8 µM).
Turning to COR-L 105, the relative viability stood at 1.13 in test [1] (first compound 0.8 µM); 0.852 in test [1] (first compound 2.53 µM); 1.48 in test [1] (first compound 8 µM); 0.846 in test [2] (first compound 0.8 µM); 0.75 in test [2] (first compound 2.53 µM); 0.702 in test [2] (first compound 8 µM). Besides, the relative viability in test [3] (first compound 0.8 µM) worked out at 0.299; in test [3] (first compound 2.53 µM) it was 0.4; in test [3] (first compound 8 µM), 0.363; with RO-3306 + Bortezomib (first compound 0.01 µM), 0.792; with RO-3306 + Bortezomib (first compound 0.03162 µM) it was 0.718; with RO-3306 + Bortezomib (first compound 0.1 µM) it was 0.777. The relative viability in the test with RO-3306 + Bortezomib (first compound 0.3162 µM) was 0.822; in the test with RO-3306 + Bortezomib (first compound 1 µM) it was 0.622; in test [4] (first compound 0.8 µM), 0.784; in test [4] (first compound 2.53 µM), 0.665; in test [4] (first compound 8 µM), 0.659.
For Calu-6, the relative viability in test [1] (first compound 0.8 µM) worked out at 0.822; in test [1] (first compound 2.53 µM), 0.809; in test [1] (first compound 8 µM), 0.768; in test [2] (first compound 0.8 µM), 0.885; in test [2] (first compound 2.53 µM), 0.852; in test [2] (first compound 8 µM) it was 0.769. Further, the relative viability was 1.07 in the test with RO-3306 + Bortezomib (first compound 0.01 µM); 1.06 with RO-3306 + Bortezomib (first compound 0.03162 µM); 1.05 with RO-3306 + Bortezomib (first compound 0.1 µM); 0.995 in the test with RO-3306 + Bortezomib (first compound 0.3162 µM); 1.01 with RO-3306 + Bortezomib (first compound 1 µM).
Consider ChaGo-K-1, for which the relative viability in test [1] (first compound 0.8 µM) was 1.04; in test [1] (first compound 2.53 µM), 0.84; in test [1] (first compound 8 µM) it was 0.818; in test [2] (first compound 0.8 µM), 1.1; in test [2] (first compound 2.53 µM), 0.933; in test [2] (first compound 8 µM) it was 1.47. The relative viability in test [3] (first compound 0.8 µM) stood at 0.706; in test [3] (first compound 2.53 µM), 0.648; in test [3] (first compound 8 µM) it was 0.637; with RO-3306 + Bortezomib (first compound 0.01 µM), 1.01; in the test with RO-3306 + Bortezomib (first compound 0.03162 µM), 0.935; with RO-3306 + Bortezomib (first compound 0.1 µM), 0.656. Besides, the relative viability in the test with RO-3306 + Bortezomib (first compound 0.3162 µM) was 0.756; with RO-3306 + Bortezomib (first compound 1 µM) it was 0.673; in test [4] (first compound 0.8 µM), 0.573; in test [4] (first compound 2.53 µM), 0.719; in test [4] (first compound 8 µM), 0.706.

The values are drawn from the supplement of paper PMC10307832.
